Drawing on patent US11084800B2 (Achillion Pharmaceuticals, Inc., priority 2017, dated 2021), this text covers IC50 for 20 molecules.

For the first test, the target named is Human Factor D (Homo sapiens (Human), UniProt P00746). Nature of the test: Human Factor D Assay. The test is classed as biochemical. The conditions noted are these: Factor D inhibition, assay of Example 10; read-out: IC5 (Stars). A digest of the protocol: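 Thioester substrate Z-L-Lys-SBz (100 μM) with Ellman's reagent DTNB (100 μM) reports activity of 80 nM human serum-derived enzyme, kinetically at 405 nm over 30 min. Compound preincubated 5 min, room temperature, pH 7.5 Tris/1 M NaCl; IC50 by nonlinear fit of rates.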
Human Factor D, sequence (P00746 26-253): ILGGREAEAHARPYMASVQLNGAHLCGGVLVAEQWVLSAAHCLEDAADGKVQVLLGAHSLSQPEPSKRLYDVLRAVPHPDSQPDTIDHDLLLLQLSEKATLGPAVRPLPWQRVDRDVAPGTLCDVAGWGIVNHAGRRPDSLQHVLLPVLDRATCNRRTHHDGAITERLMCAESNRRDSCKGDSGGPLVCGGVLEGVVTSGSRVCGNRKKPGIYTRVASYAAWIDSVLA
On to `CC(=O)c1nn(CC(=O)N2[C@H](C(=O)Nc3nc(Br)ccc3C)C[C@@]3(CN4CCCC4)C[C@@H]23)c2c(C)cc(-c3cnc(C)nc3)cc12` [Compound 296, (1R,3S,5R)-2-(2-(3-acetyl-7-methyl-5-(2-methylpyrimidin-5-yl)-1H-indazol-1-yl)acetyl)-N-(6-bromo-3-methylpyridin-2-yl)-5-(pyrrolidin-1-ylmethyl)-2-azabicyclo[3.1.0]hexane-3-carboxamide], for which the IC50 was less than 1000 nM.
Same read-out and setting: the figure for `CC(=O)c1nn(CC(=O)N2[C@H](C(=O)Nc3nc(Br)ccc3C)C[C@@]3(CNC(C)C)C[C@@H]23)c2c(C)cc(-c3cnc(C)nc3)cc12` [Compound 297, (1R,3S,5R)-2-(2-(3-acetyl-7-methyl-5-(2-methylpyrimidin-5-yl)-1H-indazol-1-yl)acetyl)-N-(6-bromo-3-methylpyridin-2-yl)-5-((isopropylamino)methyl)-2-azabicyclo[3.1.0]hexane-3-carboxamide] is less than 1000 nM; for `COC(=O)[C@@H]1CCCN1C[C@@]12C[C@@H](C(=O)Nc3nc(Br)ccc3C)N(C(=O)Cn3nc(C(C)=O)c4cc(-c5cnc(C)nc5)cc(C)c43)[C@@H]1C2` [Compound 298, methyl (((1R,3S,5R)-2-(2-(3-acetyl-7-methyl-5-(2-methylpyrimidin-5-yl)-1H-indazol-1-yl)acetyl)-3-((6-bromo-3-methylpyridin-2-yl)carbamoyl)-2-azabicyclo[3.1.0]hexan-5-yl)methyl)-L-prolinate] it is less than 1000 nM.
With `CC(=O)c1nn(CC(=O)N2[C@H](C(=O)Nc3nc(Br)ccc3C)C[C@@]3(CN4CCC[C@H]4C(=O)O)C[C@@H]23)c2c(C)cc(-c3cnc(C)nc3)cc12` [Compound 299, (((1R,3S,5R)-2-(2-(3-acetyl-7-methyl-5-(2-methylpyrimidin-5-yl)-1H-indazol-1-yl)acetyl)-3-((6-bromo-3-methylpyridin-2-yl)carbamoyl)-2-azabicyclo[3.1.0]hexan-5-yl)methyl)-L-proline], the IC50 was less than 1000 nM.
For the molecule `CC(=O)c1nn(CC(=O)N2[C@H](C(=O)Nc3nc(Br)ccc3C)C[C@@]3(CNC(C)(C)C)C[C@@H]23)c2c(C)cc(-c3cnc(C)nc3)cc12` [Compound 300, (1R,3S,5R)-2-(2-(3-acetyl-7-methyl-5-(2-methylpyrimidin-5-yl)-1H-indazol-1-yl)acetyl)-N-(6-bromo-3-methylpyridin-2-yl)-5-((tert-butylamino)methyl)-2-azabicyclo[3.1.0]hexane-3-carboxamide], the IC50 is less than 1000 nM.
In the case of `CC(=O)c1nn(CC(=O)N2[C@H](C(=O)Nc3nc(Br)ccc3CN3C(C)(C)CCCC3(C)C)C[C@@]3(C)C[C@@H]23)c2ccc(-c3cnc(C)nc3)cc12` [Compound 302, (1R,3S,5R)-2-(2-(3-acetyl-5-(2-methylpyrimidin-5-yl)-1H-indazol-1-yl)acetyl)-N-(6-bromo-3-((2,2,6,6-tetramethylpiperidin-1-yl)methyl)pyridin-2-yl)-5-methyl-2-azabicyclo[3.1.0]hexane-3-carboxamide], the IC50 is less than 1000 nM.
Still for that read-out and setting: the figure for `CC(=O)c1nn(CC(=O)N2C[C@@](F)(Cn3ccnn3)C[C@H]2C(=O)Nc2nc(Br)ccc2C)c2ccc(-c3cnc(C)nc3)cc12` [Compound 304, (2S,4R)-4-((1H-1,2,3-triazol-1-yl)methyl)-1-(2-(3-acetyl-5-(2-methylpyrimidin-5-yl)-1H-indazol-1-yl)acetyl)-N-(6-bromo-3-methylpyridin-2-yl)-4-fluoropyrrolidine-2-carboxamide] is less than 1000 nM; for `CC(=O)c1nn(CC(=O)N2[C@H](C(=O)Nc3nc(Br)ccc3C)C[C@@]3(CN4CCOCC4)C[C@@H]23)c2c(C)cc(-c3cnc(C)nc3)cc12` [Compound 305, (1R,3S,5R)-2-(2-(3-acetyl-7-methyl-5-(2-methylpyrimidin-5-yl)-1H-indazol-1-yl)acetyl)-N-(6-bromo-3-methylpyridin-2-yl)-5-(morpholinomethyl)-2-azabicyclo[3.1.0]hexane-3-carboxamide] it is less than 1000 nM; for `CC(=O)c1nn(CC(=O)N2[C@H](C(=O)Nc3nc(Br)ccc3C)C[C@@]3(CN4CCC(F)(F)CC4)C[C@@H]23)c2c(C)cc(-c3cnc(C)nc3)cc12` [Compound 306, (1R,3S,5R)-2-(2-(3-acetyl-7-methyl-5-(2-methylpyrimidin-5-yl)-1H-indazol-1-yl)acetyl)-N-(6-bromo-3-methylpyridin-2-yl)-5-((4,4-difluoropiperidin-1-yl)methyl)-2-azabicyclo[3.1.0]hexane-3-carboxamide] it is less than 1000 nM.
Same read-out and setting: the figure for `CC(=O)c1nn(CC(=O)N2[C@H](C(=O)Nc3nc(Br)ccc3C)C[C@@]3(CNC(C)(C)C)C[C@@H]23)c2ccc(-c3cnc(C)nc3)cc12` [Compound 307, (1R,3S,5R)-2-(2-(3-acetyl-5-(2-methylpyrimidin-5-yl)-1H-indazol-1-yl)acetyl)-N-(6-bromo-3-methylpyridin-2-yl)-5-((tert-butylamino)methyl)-2-azabicyclo[3.1.0]hexane-3-carboxamide] is less than 1000 nM; for `CC(=O)c1nn(CC(=O)N2[C@H](C(=O)Nc3nc(Br)ccc3CN3CC4CCC3C4)C[C@@]3(C)C[C@@H]23)c2ccc(-c3cnc(C)nc3)cc12` (stereo partly drawn) [Compound 308, (1R,3S,5R)-N-(3-(2-azabicyclo[2.2.1]heptan-2-ylmethyl)-6-bromopyridin-2-yl)-2-(2-(3-acetyl-5-(2-methylpyrimidin-5-yl)-1H-indazol-1-yl)acetyl)-5-methyl-2-azabicyclo[3.1.0]hexane-3-carboxamide] it is less than 1000 nM; for `CC(=O)c1nn(CC(=O)N2[C@H](C(=O)Nc3nc(Br)ccc3C)C[C@@]3(c4cn(C(C)C)nn4)C[C@@H]23)c2ccc(-c3cnc(C)nc3)cc12` [Compound 309, (1R,3S,5S)-2-(2-(3-acetyl-5-(2-methylpyrimidin-5-yl)-1H-indazol-1-yl)acetyl)-N-(6-bromo-3-methylpyridin-2-yl)-5-(1-isopropyl-1H-1,2,3-triazol-4-yl)-2-azabicyclo[3.1.0]hexane-3-carboxamide] it is less than 1000 nM.
Still for that read-out and setting: the figure for `CC(=O)c1nn(CC(=O)N2[C@H](C(=O)Nc3nc(Br)ccc3C)C[C@@]3(Cn4cccn4)C[C@@H]23)c2ccc(-c3cnc(C)nc3)cc12` [Compound 310, (1R,3S,5R)-5-((1H-Pyrazol-1-yl)methyl)-2-(2-(3-acetyl-5-(2-methylpyrimidin-5-yl)-1H-indazol-1-yl)acetyl)-N-(6-bromo-3-methylpyridin-2-yl)-2-azabicyclo[3.1.0]hexane-3-carboxamide] is less than 1000 nM; for `CC(=O)c1nn(CC(=O)N2[C@H](C(=O)Nc3nc(Br)ccc3C)C[C@@]3(Cn4ccc(C(C)(C)C)n4)C[C@@H]23)c2ccc(-c3cnc(C)nc3)cc12` [Compound 311, (1R,3S,5R)-2-(2-(3-acetyl-5-(2-methylpyrimidin-5-yl)-1H-indazol-1-yl)acetyl)-N-(6-bromo-3-methylpyridin-2-yl)-5-((3-(tert-butyl)-1H-pyrazol-1-yl)methyl)-2-azabicyclo[3.1.0]hexane-3-carboxamide] it is less than 1000 nM; for `CC(=O)c1nn(CC(=O)N2[C@H](C(=O)Nc3nc(Br)ccc3C)C[C@@]3(Cn4cncn4)C[C@@H]23)c2ccc(-c3cnc(C)nc3)cc12` [Compound 312, (1R,3S,5R)-5-((1H-1,2,4-triazol-1-yl)methyl)-2-(2-(3-acetyl-5-(2-methylpyrimidin-5-yl)-1H-indazol-1-yl)acetyl)-N-(6-bromo-3-methylpyridin-2-yl)-2-azabicyclo[3.1.0]hexane-3-carboxamide] it is less than 1000 nM.
Regarding `CC(=O)c1nn(CC(=O)N2[C@H](C(=O)Nc3nc(Br)ccc3C)C[C@@]3(Cn4cncn4)C[C@@H]23)c2cnc(-c3cnc(C)nc3)cc12` [Compound 313, (1R,3S,5R)-5-((1H-1,2,4-triazol-1-yl)methyl)-2-(2-(3-acetyl-5-(2-methylpyrimidin-5-yl)-1H-pyrazolo[3,4-c]pyridin-1-yl)acetyl)-N-(6-bromo-3-methylpyridin-2-yl)-2-azabicyclo[3.1.0]hexane-3-carboxamide], the IC50 is less than 1000 nM.
Same read-out and setting: the figure for `CC(=O)c1nn(CC(=O)N2[C@H](C(=O)Nc3nc(Br)ccc3C)C[C@@]3(Cn4cnc(C)c4)C[C@@H]23)c2ccc(-c3cnc(C)nc3)cc12` [Compound 314, (1R,3S,5R)-2-(2-(3-Acetyl-5-(2-methylpyrimidin-5-yl)-1H-indazol-1-yl)acetyl)-N-(6-bromo-3-methylpyridin-2-yl)-5-((4-methyl-1H-imidazol-1-yl)methyl)-2-azabicyclo[3.1.0]hexane-3-carboxamide] is less than 1000 nM; for `CC(=O)c1nn(CC(=O)N2[C@@H](C(=O)Nc3nc(Br)ccc3C)C[C@@]3(Cn4cnc(C)c4)C[C@@H]23)c2ccc(-c3cnc(C)nc3)cc12` [Compound 315, (1R,3R,5R)-2-(2-(3-Acetyl-5-(2-methylpyrimidin-5-yl)-1H-indazol-1-yl)acetyl)-N-(6-bromo-3-methylpyridin-2-yl)-5-((4-methyl-1H-imidazol-1-yl)methyl)-2-azabicyclo[3.1.0]hexane-3-carboxamide] it is 1000 to 10000 nM; for `CCc1cc(-c2cnc(C)nc2)cc2c(C(C)=O)nn(CC(=O)N3[C@H](C(=O)Nc4nc(Br)ccc4C)C[C@@]4(CN(C)C)C[C@@H]34)c12` [Compound 316, (1R,3S,5R)-2-(2-(3-acetyl-7-ethyl-5-(2-methylpyrimidin-5-yl)-1H-indazol-1-yl)acetyl)-N-(6-bromo-3-methylpyridin-2-yl)-5-((dimethylamino)methyl)-2-azabicyclo[3.1.0]hexane-3-carboxamide] it is less than 1000 nM.

The same test, now with this note: Table 8; Factor D 80 nM, substrate Z-L-Lys-SBz; read-out: IC50.
Regarding `CC(=O)c1nn(CC(=O)N2[C@H](C(=O)Nc3nc(Br)ccc3C)C[C@@]3(CN(C)C)C[C@@H]23)c2c(C3CC3)cc(-c3cnc(C)nc3)cc12` [Compound 317, (1R,3S,5R)-2-(2-(3-acetyl-7-cyclopropyl-5-(2-methylpyrimidin-5-yl)-1H-indazol-1-yl)acetyl)-N-(6-bromo-3-methylpyridin-2-yl)-5-((dimethylamino)methyl)-2-azabicyclo[3.1.0]hexane-3-carboxamide], the IC50 is less than 1000 nM.
